Experimental data as given in publication PMC3767384 (The Biochemical journal, 2012).

Assays:
[1] = tested on: primary bovine retinal endothelial cells (BREC); test: In vitro permeability assay, VEGF-induced, 70 kDa RITC-Dextran; assay type: cell-based; details: siRNA transfection for 72 h, 50 ng/ml VEGF
[2] = tested on: visual loss in diabetic retinopathy; details: clinical trials; cited from earlier work
PKCβ = details: oral administration; cited from earlier work

| Molecule | Effect on VEGF-induced increase in retinal endothelial permeability [1] | Effect on visual loss [2] | Effect on diabetes induced-endothelial proliferation and permeability (PKCβ) |
| --- | --- | --- | --- |
| 5’-GCAAUGAACACCAGGGAAA-3’ [PKCι Construct A] | prevented the VEGF-induced increase in retinal endothelial permeability |  |  |
| CN(C)C[C@@H]1CCn2cc(c3ccccc32)C2=C(C(=O)NC2=O)c2cn(c3ccccc23)CCO1 [ruboxistaurin] |  | delays sustained moderate visual loss in diabetic retinopathy | prevents these pathologic outcomes |
